Data as given in article PMC8317200 (Journal of medicinal chemistry, 2020).
Residues, ends and D or L forms follow the SMILES beside them. *: point of attachment. Adamantane1carbonyl = O=C(C12CC3CC(CC(C3)C1)C2)*; NH(1-Adamantyl) = C1C2CC3CC1CC(N*)(C2)C3; Fmoc = O=C(OCC1c2ccccc2-c2ccccc21)*; Benzoyl(4-F) = O=C(c1ccc(F)cc1)*; Pyrrolidide = C1CCN(*)C1; Cbz = O=C(OCc1ccccc1)*; OcHex = C1CCC(O*)CC1; Bz = O=C(c1ccccc1)*; OtBu = CC(C)(C)O*; OAll = C=CCO*; X1 = C#CCO*

Columns and labels:
FGF14:Nav1.6 complex = target: T1, FGF14:Nav1.6 complex (Homo sapiens, UniProt Q92915); assay: Split-luciferase complementation assay; format: cell-based; conditions: for Inhibitory activity against FGF14:Nav1.6 complex assembly (in words): 50 μM screening; for activity at 50 µM: HEK293, 1 h, read-out: RLVs (%)
T1 sequence (Q92915 1-252 isoform Q92915-2): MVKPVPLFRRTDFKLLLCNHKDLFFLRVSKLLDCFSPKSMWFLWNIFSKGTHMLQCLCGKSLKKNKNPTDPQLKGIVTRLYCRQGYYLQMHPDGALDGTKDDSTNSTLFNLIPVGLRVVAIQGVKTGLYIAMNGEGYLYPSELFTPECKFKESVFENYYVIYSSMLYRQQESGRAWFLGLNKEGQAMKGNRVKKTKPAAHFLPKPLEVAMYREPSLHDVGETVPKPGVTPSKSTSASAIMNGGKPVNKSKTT

FGF14 = target: T2, FGF14 (Homo sapiens, UniProt Q92915); assay: Surface plasmon resonance; format: binding; conditions: for koff: read-out: koff FGF14; for kon: read-out: kon FGF14
T2 sequence (Q92915 64-252 isoform Q92915-2): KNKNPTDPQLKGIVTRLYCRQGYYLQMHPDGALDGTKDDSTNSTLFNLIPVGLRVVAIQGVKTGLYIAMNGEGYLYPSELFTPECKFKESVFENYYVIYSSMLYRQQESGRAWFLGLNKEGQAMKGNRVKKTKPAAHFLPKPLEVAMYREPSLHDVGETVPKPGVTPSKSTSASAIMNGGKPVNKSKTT

CLuc-FGF14-1b (human) = target: T3, CLuc-FGF14-1b (human) (UniProt Q92915); assay: split reporter
T3 sequence: T1 sequence (Q92915 1-252 isoform Q92915-2)

Q: With CC(C)C[C@H](NC(=O)[C@@H]1CCCN1C(=O)c1ccccc1)C(=O)N[C@@H](CCC(=O)OC(C)(C)C)C(=O)N[C@H](C(N)=O)C(C)C [Compound 13a, tert-Butyl (S)-5-(((S)-1-amino-3-methyl-1-oxobutan-2-yl)amino)-4-((S)-2-((S)-1-benzoylpyrrolidine-2-carboxamido)-4-methylpentanamido)-5-oxopentanoate] (Bz-PLE(OtBu)V-NH2) as the molecule, how does the “Inhibitory activity against FGF14:Nav1.6 complex assembly (in words)” value (“Inhibitory activity” for short) (FGF14:Nav1.6 complex) read?
A: did not show any inhibitory activity

Q: For CC(C)C[C@H](NC(=O)[C@@H]1CCCN1C(=O)c1ccc(F)cc1)C(=O)N[C@@H](CCC(=O)OC(C)(C)C)C(=O)N[C@H](C(N)=O)C(C)C [Compound 13f, tert-Butyl (S)-5-(((S)-1-amino-3-methyl-1-oxobutan-2-yl)amino)-4-((S)-2-((S)-1-(4-fluorobenzoyl)pyrrolidine-2-carboxamido)-4-methylpentanamido)-5-oxopentanoate] ({Benzoyl(4-F)}-PLE(OtBu)V-NH2), which “Inhibitory activity” value (FGF14:Nav1.6 complex) is on record?
A: did not show any inhibitory activity

Q: What about the activity at 50 µM (FGF14:Nav1.6 complex) of the same molecule?
A: 123 ± 3%

Q: For CC(C)C[C@H](NC(=O)[C@@H]1CCCN1C(=O)OCc1ccccc1)C(=O)N[C@@H](CCC(=O)OC(C)(C)C)C(=O)N[C@H](C(=O)N1CCCC1)C(C)C [Compound 19e, Benzyl (S)-2-(((S)-1-(((S)-5-(tert-butoxy)-1-(((S)-3-methyl-1-oxo-1-(pyrrolidin-1-yl)butan-2-yl)amino)-1,5-dioxopentan-2-yl)amino)-4-methyl-1-oxopentan-2-yl)carbamoyl)pyrrolidine-1-carboxylate] (Cbz-PLE(OtBu)V-Pyrrolidide), which koff (FGF14) is on record?
A: 0.000991 s⁻¹

Q: What about the kon (FGF14) of the same molecule?
A: 461 M⁻¹ s⁻¹

Q: How did the “Inhibitory activity” value (FGF14:Nav1.6 complex) turn out when CC(C)C[C@H](NC(=O)[C@@H]1CCCN1C(=O)OCc1ccccc1)C(=O)N[C@@H](CCC(=O)OC(C)(C)C)C(=O)N[C@H](C(=O)NC12CC3CC(CC(C3)C1)C2)C(C)C [Compound 19h, Benzyl (S)-2-(((S)-1-(((S)-1-(((S)-1-(((3R,5R,7R)-adamantan-1-yl)amino)-3-methyl-1-oxobutan-2-yl)amino)-5-(tert-butoxy)-1,5-dioxopentan-2-yl)amino)-4-methyl-1-oxopentan-2-yl)carbamoyl)pyrrolidine-1-carboxylate] (Cbz-PLE(OtBu)V-{NH(1-Adamantyl)}) was run?
A: minimal inhibitory activity

Q: How did the “Binding by PTS and SPR (in words)” value (FGF14; PTS and SPR) turn out when C=CCOC(=O)[C@@H](NC(=O)[C@H](CCC(=O)OC(C)(C)C)NC(=O)[C@H](CC(C)C)NC(=O)[C@@H]1CCCN1C(=O)OCc1ccccc1)C(C)C [Compound 19k, Benzyl (S)-2-(((S)-1-(((S)-1-(((S)-1-(allyloxy)-3-methyl-1-oxobutan-2-yl)amino)-5-(tert-butoxy)-1,5-dioxopentan-2-yl)amino)-4-methyl-1-oxopentan-2-yl)carbamoyl)pyrrolidine-1-carboxylate] (Cbz-PLE(OtBu)V-OAll) was run?
A: negligible binding

Q: Which “Inhibitory activity” value (FGF14:Nav1.6 complex) does the source give for COC(=O)[C@@H](NC(=O)[C@H](CCC(=O)OC(C)(C)C)NC(=O)[C@H](CC(C)C)NC(=O)[C@@H]1CCCN1C(=O)OCC1c2ccccc2-c2ccccc21)C(C)C [Compound 21b, (9H-Fluoren-9-yl)methyl (S)-2-(((S)-1-(((S)-5-(tert-butoxy)-1-(((S)-1-methoxy-3-methyl-1-oxobutan-2-yl)amino)-1,5-dioxopentan-2-yl)amino)-4-methyl-1-oxopentan-2-yl)carbamoyl)pyrrolidine-1-carboxylate] (Fmoc-PLE(OtBu)V-OMe) here?
A: markedly reduced inhibitory activity

Q: Which “Inhibitory activity” value (FGF14:Nav1.6 complex) does the source give for COC(=O)[C@@H](NC(=O)[C@H](CCC(=O)OC(C)(C)C)NC(=O)[C@H](CC(C)C)NC(=O)[C@@H]1CCCN1C(C)=O)C(C)C [Compound 21c, tert-Butyl (S)-4-((S)-2-((S)-1-acetylpyrrolidine-2-carboxamido)-4-methylpentanamido)-5-(((S)-1-methoxy-3-methyl-1-oxobutan-2-yl)amino)-5-oxopentanoate] (Ac-PLE(OtBu)V-OMe) here?
A: markedly reduced inhibitory activity

Q: Which kon (FGF14) does the source give for C#CCOC(=O)[C@@H](NC(=O)[C@H](CCC(=O)OC(C)(C)C)NC(=O)[C@H](CC(C)C)NC(=O)[C@@H]1CCCN1C(=O)C12CC3CC(CC(C3)C1)C2)C(C)C [Compound 23b, tert-Butyl (4S)-4-((2S)-2-((2S)-1-((1R,3R)-adamantane-1-carbonyl)pyrrolidine-2-carboxamido)-4-methylpentanamido)-5-(((S)-3-methyl-1-oxo-1-(prop-2-yn-1-yloxy)butan-2-yl)amino)-5-oxopentanoate] (Adamantane1carbonyl-PLE(OtBu)V-X1) here?
A: 25800 M⁻¹ s⁻¹

Q: Which results are given for CC(C)C[C@H](NC(=O)[C@@H]1CCCN1C(=O)C12CC3CC(CC(C3)C1)C2)C(=O)N[C@@H](CCC(=O)OC(C)(C)C)C(=O)N[C@H](C(=O)OC(C)(C)C)C(C)C [Compound 23d, tert-Butyl (4S)-4-((2S)-2-((2S)-1-((1R,3R)-adamantane-1-carbonyl)pyrrolidine-2-carboxamido)-4-methylpentanamido)-5-(((S)-1-(tert-butoxy)-3-methyl-1-oxobutan-2-yl)amino)-5-oxopentanoate] (Adamantane1carbonyl-PLE(OtBu)V-OtBu)?
A: koff (FGF14): 0.0058 s⁻¹; kon (FGF14): 1620 M⁻¹ s⁻¹

Q: What does the source list for CC(C)C[C@H](NC(=O)[C@@H]1CCCN1C(=O)C12CC3CC(CC(C3)C1)C2)C(=O)N[C@@H](CCC(=O)OC(C)(C)C)C(=O)N[C@H](C(=O)OC1CCCCC1)C(C)C [Compound 23e, tert-Butyl (4S)-4-((2S)-2-((2S)-1-((1R,3R)-adamantane-1-carbonyl)pyrrolidine-2-carboxamido)-4-methylpentanamido)-5-(((S)-1-(cyclohexyloxy)-3-methyl-1-oxobutan-2-yl)amino)-5-oxopentanoate] (Adamantane1carbonyl-PLE(OtBu)V-OcHex)?
A: koff (FGF14): 0.0139 s⁻¹; kon (FGF14): 7350 M⁻¹ s⁻¹

Q: For COC(=O)CC[C@H](NC(=O)[C@H](CC(C)C)NC(=O)[C@@H]1CCCN1C(=O)OCc1ccccc1)C(=O)OC(C)(C)C [Compound 30, 1-(tert-Butyl) 5-methyl ((benzyloxy)carbonyl)-L-prolyl-L-leucyl-L-glutamate] (Cbz-Pro-Leu-Glu(OMe)-OtBu), which activity at 50 µM (FGF14:Nav1.6 complex) is on record?
A: > 100%

Q: For CC(C)C[C@H](NC(=O)[C@@H]1CCCN1C(=O)OCc1ccccc1)C(=O)N[C@H](C(N)=O)C(C)C [Compound 31, Benzyl (S)-2-(((S)-1-(((S)-1-amino-3-methyl-1-oxobutan-2-yl)amino)-4-methyl-1-oxopentan-2-yl)carbamoyl)pyrrolidine-1-carboxylate] (Cbz-Pro-Leu-Val-NH2), which activity at 50 µM (FGF14:Nav1.6 complex) is on record?
A: > 100%

Q: Which activity at 50 µM (FGF14:Nav1.6 complex) does the source give for COC(=O)[C@@H](NC(=O)[C@H](CC(C)C)NC(=O)[C@@H]1CCCN1C(=O)OCc1ccccc1)C(C)C [Compound 32, Benzyl (S)-2-(((S)-1-(((S)-1-methoxy-3-methyl-1-oxobutan-2-yl)amino)-4-methyl-1-oxopentan-2-yl)carbamoyl)pyrrolidine-1-carboxylate] (Cbz-Pro-Leu-Val-OMe) here?
A: > 100%

B1: compound 21a (peptide)
peptide: Adamantane1carbonyl-PLE(OtBu)V-OMe
SMILES: COC(=O)[C@@H](NC(=O)[C@H](CCC(=O)OC(C)(C)C)NC(=O)[C@H](CC(C)C)NC(=O)[C@@H]1CCCN1C(=O)C12CC3CC(CC(C3)C1)C2)C(C)C
Q: How did the IC50 (CLuc-FGF14-1b (human)) turn out when B1 was run?
A: 20.4 µM

Q: What about the efficacy (percent inhibition at the bottom plateau) (CLuc-FGF14-1b (human)) of the same molecule?
A: 96.1%

Q: For Adamantane1carbonyl-PLE(OtBu)V-{O‑allyl} [compound 23a], which IC50 (CLuc-FGF14-1b (human)) is on record?
A: 11.5 µM

Q: What about the efficacy (percent inhibition at the bottom plateau) (CLuc-FGF14-1b (human)) of the same molecule?
A: 95.5%

Q: Adamantane1carbonyl-PLE(OtBu)V-{O‑propargyl} [compound 23b] was tested. Which IC50 (CLuc-FGF14-1b (human)) did it give?
A: 13.8 µM

Q: And the efficacy (percent inhibition at the bottom plateau) (CLuc-FGF14-1b (human))?
A: 96.6%

B2: compound 23d (peptide)
peptide: Adamantane1carbonyl-PLE(OtBu)V-OtBu
SMILES: CC(C)C[C@H](NC(=O)[C@@H]1CCCN1C(=O)C12CC3CC(CC(C3)C1)C2)C(=O)N[C@@H](CCC(=O)OC(C)(C)C)C(=O)N[C@H](C(=O)OC(C)(C)C)C(C)C
Q: Which IC50 (CLuc-FGF14-1b (human)) does the source give for B2 here?
A: 33.9 µM

Q: What about the efficacy (percent inhibition at the bottom plateau) (CLuc-FGF14-1b (human)) of the same molecule?
A: 92.1%

Q: Which IC50 (CLuc-FGF14-1b (human)) does the source give for Adamantane1carbonyl-PLE(OtBu)V-{O‑cyclohexyl} [compound 23e] here?
A: 35.3 µM

Q: And the efficacy (percent inhibition at the bottom plateau) (CLuc-FGF14-1b (human))?
A: 69.9%

B3: compound 23f (peptide)
peptide: Adamantane1carbonyl-PLE(OtBu)V-OEt
SMILES: CCOC(=O)[C@@H](NC(=O)[C@H](CCC(=O)OC(C)(C)C)NC(=O)[C@H](CC(C)C)NC(=O)[C@@H]1CCCN1C(=O)C12CC3CC(CC(C3)C1)C2)C(C)C
Q: Which results are given for B3?
A: IC50 (CLuc-FGF14-1b (human)): 13.3 µM; efficacy (percent inhibition at the bottom plateau) (CLuc-FGF14-1b (human)): 82.3%

Q: Which results are given for Adamantane1carbonyl-PLE(OtBu)V-{O‑propyl} [compound 23g]?
A: IC50 (CLuc-FGF14-1b (human)): 22.5 µM; efficacy (percent inhibition at the bottom plateau) (CLuc-FGF14-1b (human)): 83.3%
